Experimental data from patent publication US10266549B2, “ULK1 inhibitors and methods using same” (SALK INSTITUTE FOR BIOLOGICAL STUDIES, priority 2014, dated 2019).

Tests used:
A549 lung cancer cells = assay: AnnexinV apoptosis analysis in A549 cells with mTOR inhibitor; format: cell-based; details: AZD8055 alone, 1 micromolar
Protocol: A549 cells (ATCC #CCL185) and MEFs were seeded at a concentration of 2.5×10^5 cells/mL (i.e., 750,000 cells per 6 cm dish), grown overnight (18 hrs) and treated as indicted in the figure legends. Unless otherwise indicated, “starvation” is EBSS and “control” is DMEM with full serum for indicated timepoints. Samples for western blot were washed once in 1× ice cold PBS and lysed in boiling SDS lysis buffer (10 mM Tris […], 100 mM NaCl, 1% SDS). After trituration, lysates were equilibrated for protein levels using the BCA method (Pierce) and resolved on 8 to 15% SDS-PAGE gels, depending on the size of the protein. PVDF membranes were probed with indicated antibodies overnight according to the manufacturers instructions.
For flow cytometry analysis, cells were collected at the appropriate time point, washed once in PBS, trypsinized and pelleted. For Annexin V staining, cells were washed in 1× Annexin V buffer and treated as described by the Annexin V staining protocol (BD Pharmingen, San Diego, Calif.). Briefly, cells were resuspended in Annexin V buffer to a concentration of one million per mL, 100,000 cells were then stained with 5 μL of phycoerythrin (PE)-conjugated Annexin V antibody (BD Pharmingen, San Diego, Calif.) and 5 μL of 7-amino-actinomycin D (7AAD) and then incubated at room temperature for 15 minutes. 400 μL of Annexin V buffer was then added to each sample with gentle mixing. Stained cells were analyzed using a FACScan flow cytometer (Becton Dickinson, San Jose, Calif.). Flow cytometry data was analyzed using FlowJo 8.6 software (Tree Star Inc., Ashland, Oreg.).
There has been great interest in the role of autophagy in the survival of tumor cells, particular tumor cells faced with metabolic stress from chemotherapies or targeted therapeutics. We next examined whether compound 14 would promote apoptosis in tumor cells similar to the MEFs, selectively under conditions in which autophagy is actively engaged. […] Given that mTOR activity is a dominant regulator of ULK1 activity, and we previously noted that treatment of cells with mTOR catalytic inhibitors was sufficient to induce ULK1 activity, we examined the effect of adding in the ULK1 inhibitor in the context of treatment with mTOR catalytic inhibitors. Using a cell line well-established to be sensitive to mTORC1 inhibition, A549 lung cancer cells, we treated with escalating doses of ULK1 inhibitor while keeping a constant cytostatic growth arrest-inducing 1 micromolar dose of the mTOR catalytic inhibitor AZD8055. We observed that 5 μM compound 14 in combination with AZD8055 triggered apoptosis in 22% of A549 cells compared to 9% of the 5 μM compound 14 alone or 6% of those cells treated with AZD8055 alone. […]

[1] = tested on: PC3 human prostate cells stably expressing GFP-LC3; assay: GFP-LC3 puncta quantification in PC3 cells; format: cell-based; details: PC3 GFP-LC3, control siRNAs, 1 μM mTOR inhibitor for 4 hr
Protocol: At 48 hr after RNAi transfection, the cells were treated with 1 μM of the catalytic mTOR inhibitors AZD8055 or INK128 for 4 hr and assessed for the presence of GFP-LC3 puncta. The average number of GFPLC3 puncta and SD for each siRNA and drug treatment are shown. SRC, c-Src; c-Src kinase, CSK.
To test the ability of compound 14 to block autophagy and cell survival, initial studies were performed in A549 lung cancer cells, which are highly sensitive to mTOR inhibition. […] Next, we genetically assessed the requirement for ULK1 versus other kinases inhibited by compound 14 to induce autophagy after pharmacological mTOR inhibition. A robust high-throughput microscopy method for quantifying GFP-LC3 puncta was established using a PC3 prostate-cancer cell line stably expressing a GFP-LC3 construct. Using this assay, we performed a focused RNAi analysis of the top 20 kinases identified in the DiscovRx screen as best binding to compound 14. […] Strikingly, of the 18 kinases tested, only one kinase siRNA, ULK1, nearly fully abolished the LC3 puncta induced by the mTOR inhibitors (FIG. 9D).

Compound: COc1ccc(-c2ccc3c(N4CCOC[C@@H]4C)nc(N4CCOC[C@@H]4C)nc3n2)cc1CO [AZD8055, (5-(2,4-bis((S)-3-methylmorpholino)pyrido[2,3-d]pyrimidin-7-yl)-2-methoxyphenyl)methanol, reference compound]
- apoptosis, % of A549 cells (A549 lung cancer cells): 6%
- induction in GFP-LC3 puncta formation [1]: 2 fold
